{"source": "patent US8399462B2", "about": "“JNK modulators” (Roche Palo Alto LLC, priority 2006, dated 2013)"}
{"units": {"melting point": "°C"}}
{"molecule": "CS(=O)(=O)CCCOc1cccc2c1ccn2-c1ccnc(N[C@H]2CC[C@H](CN)CC2)n1.Cl", "melting point": "292 to 293"}
{"molecule": "CC1(C)OC[C@@H](COc2cccc3c2cnn3-c2ccnc(N[C@H]3CC[C@H](NS(C)(=O)=O)CC3)n2)O1", "note": "(stereo in doubt) [Compound 128, N-(4-{4-[4-(2,2-di-methyl[1,3]dioxolan-4-ylmethoxy)-indazol-1-yl]-pyrimidin-2-yl-amino}-cyclohexyl)-methanesulfonamide]", "melting point": "247 to 247.8"}
{"molecule": "CS(=O)(=O)CCCOc1cccc2c1ccn2-c1ccnc(N[C@H]2CC[C@H](NS(=O)(=O)c3cccs3)CC2)n1", "note": "[Compound 294, Thiophene-2-sulfonic-acid (4-{4-[4-(3-methane-sulfonyl-propoxy)-indol-1-yl]-pyrimidin-2-ylamino}-cyclohexyl)-amide]", "melting point": "226 to 227"}
{"molecule": "Cl.NC[C@H]1CC[C@H](Nc2nccc(-n3ccc4c(OCCCC(F)(F)F)cccc43)n2)CC1", "melting point": "274 to 275"}
{"molecule": "CC(C)COc1cccc2c1cnn2-c1ccnc(N[C@H]2CC[C@H](O)CC2)n1", "note": "[Compound 169, 4-[4-(4-isobutoxy-indazol-1-yl)-pyrimidin-2-ylamino]-cyclohexanol]", "melting point": "189.3 to 190.3"}
{"molecule": "N[C@H]1CC[C@H](Nc2nccc(-n3ccc4ccccc43)n2)CC1", "note": "[Compound 52, N-(4-indol-1-yl-pyrimidin-2-yl)-cyclo-hexane-1,4-diamine]", "melting point": "270.1 to 273.3"}
{"molecule": "O=S(=O)(Cc1ccccc1)c1cccc2c1ccn2-c1ccnc(N[C@H]2CC[C@H](O)CC2)n1", "note": "[Example 14, trans-4-[4-(4-Phenylmethanesulfonylindol-1-yl)-pyrimidin-2-yl-amino]-cyclohexanol]", "melting point": "132.1 to 134.5"}
{"molecule": "OCc1ccc2cnn(-c3ccnc(N[C@H]4CC[C@H](O)CC4)n3)c2c1", "note": "[Example 20, trans-4-[4-(6-Hydroxymethylindazol-1-yl)-pyrimidin-2-ylamino]-cyclohexanol]", "melting point": "216 to 217.7"}
{"molecule": "CC(C)(O)[C@H]1CC[C@H](Nc2nccc(-n3ncc4c(OCCCNS(C)(=O)=O)cccc43)n2)CC1", "note": "[Compound 210, N-[3-(1-{2-[4-(2-hydroxyprop-2-yl)-cyclohexylamino]-pyrimidin-4-yl}-1H-indazol-4-yloxy)-propyl]-methane-sulfonamide]", "melting point": "171 to 172"}
{"molecule": "CC(C)(O)COc1cccc2c1ccn2-c1ccnc(N[C@H]2CC[C@H](C(=O)N3CCC(O)CC3)CC2)n1", "note": "[Compound 281, (4-{4-[4-(2-hydroxy-2-methyl-propoxy)-indol-1-yl]-pyrimidin-2-yl-amino}-cyclohexyl)-(4-hydroxy-piperidin-1-yl)-methanone]", "melting point": "174 to 176.9"}
{"molecule": "CC(C)(O)c1cccc2c1cnn2-c1ccnc(N[C@H]2CC[C@H](N3CCCS3(=O)=O)CC2)n1", "note": "[Compound 207, 2-(1-{2-[4-(1,1-dioxo-isothiazolidin-2yl)-cyclohexylamino]-pyrimidin-4-yl}-1H-indazol-4-yl)-propan-2-ol]", "melting point": "204 to 205"}
{"molecule": "O=C([C@H]1CC[C@H](Nc2nccc(-n3ncc4c(OCCO)cccc43)n2)CC1)N1CCCC1", "note": "[Compound 151, (4-{4-[4-(2-hydroxy-ethoxy)-indazol-1-yl]-pyrimidin-2-ylamino}-cyclohexyl)-pyrrolidin-1-ylmethanone]", "melting point": "164 to 166"}
{"molecule": "c1ccc2c(c1)ccn2-c1ccnc(NC2CCCCC2)n1", "note": "[Compound 66, Cyclohexyl-(4-indol-1-ylpyrimidin-2-yl)amine]", "melting point": "192.5 to 193"}
{"molecule": "CC(=O)N[C@H]1CC[C@H](Nc2nccc(-n3ccc4c(S(C)(=O)=O)cccc43)n2)CC1", "note": "[Compound 218, N-{4-[4-(4-methane-sulfonyl-indol-1-yl)-pyrimidin-2-ylamino]-cyclohexyl}-acetamide]", "melting point": "264 to 265"}
{"molecule": "CS(=O)(=O)N[C@H]1CC[C@H](Nc2nccc(-n3ccc4c(C5(O)CCOCC5)cccc43)n2)CC1", "note": "[Compound 194, N-(4-{4-[4-(4-hydroxy-tetrahydropyran-4-yl)-indol-1-yl]-pyrimidin-2-ylamino}-cyclohexyl)-methanesulfonamide]", "melting point": "248.3 to 249"}
{"molecule": "O[C@H]1CC[C@H](Nc2nccc(-n3ncc4c(OCc5ccccn5)cccc43)n2)CC1", "note": "[Compound 103, 4-{4-[4-(pyridine-2-yl-methoxy)-indazol-1-yl]-pyrimidin-2-ylamino}-cyclohexanol]", "melting point": "202.5 to 203.6"}
{"molecule": "C[C@@H](CO)COc1cccc2c1cnn2-c1ccnc(N[C@H]2CC[C@H](C(=O)N3CCCC3)CC2)n1", "note": "(stereo in doubt) [Compound 171, (4-{4-[4-(3-hydroxy-2-methylpropoxy)-indazol-1-yl]-pyrimidin-2-ylamino}-cyclohexyl)-pyrrolidin-1-ylmethanone]", "melting point": "199.4 to 200.4"}
{"molecule": "CC(=O)N[C@H]1CC[C@H](Nc2ncc(Cl)c(-n3ccc4ccccc43)n2)CC1", "note": "[Compound 119, N-[4-(5-chloro-4-indol-1-ylpyrimidin-2-yl-amino)-cyclohexyl]-acetamide]", "melting point": "263.2 to 263.8"}
{"molecule": "CN(C)C1CCN(C(=O)[C@H]2CC[C@H](Nc3nccc(-n4ccc5c(OCCCS(N)(=O)=O)cccc54)n3)CC2)CC1", "note": "[Compound 300, 3-(1-{2-[4-(4-dimethyl-amino-piperidine-1-carbonyl)-cyclohexyl-amino]-pyrimidin-4-yl}-1H-indol-4-yloxy)-propane-1-sulfonic acid amide]", "melting point": "135.7 to 142.7"}
{"molecule": "C[C@@H]1CCCN1C(=O)[C@H]1CC[C@H](Nc2nccc(-n3ncc4c(OCCCS(N)(=O)=O)cccc43)n2)CC1", "note": "(stereo in doubt) [Compound 272, 3-(1-{2-[4-(2-methyl-pyrrolidine-1-carbonyl)-cyclohexylamino]-pyrimidin-4-yl}-1H-indazol4-yloxy)-propane-1-sulfonic acid amide]", "melting point": "230 to 231"}
{"molecule": "CCCCOc1cccc2c1cnn2-c1ccnc(N[C@H]2CC[C@H](O)CC2)n1", "note": "[Compound 168, 4-[4-(4-butoxy-indazol-1-yl)-pyrimidin-2-yl-amino]-cyclohexanol]", "melting point": "195 to 196"}
{"molecule": "CS(=O)(=O)CCCOc1cccc2c1ccn2-c1ccnc(N[C@H]2CC[C@H](CO)CC2)n1", "note": "[Compound 214, (4-{4-[4-(3-methanesulfonyl-propoxy)-indol-1-yl]-pyrimidin-2-ylamino}-cyclohexyl)-methanol]", "melting point": "207 to 208"}
{"molecule": "COC(=O)N[C@H]1CC[C@H](Nc2nccc(-n3ncc4c(OCCCS(C)(=O)=O)cccc43)n2)CC1", "note": "[Compound 170, (4-{4-[4-(3-methane-sulfonyl-propoxy)-indazol-1-yl]-pyrimidin-2-ylamino}-cyclohexyl)-carbamic acid methyl ester]", "melting point": "226.8 to 227.3"}
{"molecule": "O=[N+]([O-])c1ccc2cnn(-c3ccnc(N[C@H]4CC[C@H](O)CC4)n3)c2c1", "note": "[Compound 27]", "melting point": "221.8 to 223"}
{"molecule": "CN(C)C1CCN(C(=O)[C@H]2CC[C@H](Nc3nccc(-n4cc(C(N)=O)c5ccccc54)n3)CC2)CC1", "note": "[Compound 295, 1-{2-[4-(4-dimethylamino-piperidine-1-carbonyl)-cyclohexylamino]-pyrimidin-4-yl}-1H-indole-3-carboxylic acid amide]", "melting point": "219 to 221"}
{"molecule": "CNC(=O)OCc1cccc2c1ccn2-c1ccnc(N[C@H]2CC[C@H](O)CC2)n1", "note": "[Compound 100, Methyl-carbamic acid 1-[2-(4-hydroxy-cyclo-hexylamino)-pyrimidin-4-yl]-1H-indol-4-ylmethyl ester]", "melting point": "132 to 133"}
{"molecule": "CC(=O)N[C@H]1CC[C@H](Nc2nccc(-n3ncc4c(OC[C@@H](C)CO)cccc43)n2)CC1", "note": "(stereo in doubt) [Compound 172, N-(4-{4-[4-(3-hydroxy-2-methylpropoxy)-indazol-1-yl]-pyrimidin-2-ylamino}-cyclohexyl)-acetamide]", "melting point": "215 to 216"}
{"molecule": "OCCOc1ccc2cnn(-c3ccnc(N[C@H]4CC[C@H](O)CC4)n3)c2c1", "note": "[Compound 89, 4-{4-[6-(2-hydroxy-ethoxy)-indazol-1-yl]-pyrimidin-2-ylamino}-cyclohexanol]", "melting point": "216.5 to 218.5"}
{"molecule": "CC(C)(O)[C@H]1CC[C@H](Nc2nccc(-n3ncc4c(OCCCO)cccc43)n2)CC1", "note": "[Compound 183, 3-(1-{2-[4-(2-hydroxy-prop-2-yl)-cyclohexyl-amino]-pyrimidin-4-yl}-1H-indazol-4-yloxy)-propan-1-ol]", "melting point": "229.5 to 231"}
{"molecule": "N#CCc1cccc2c1ccn2-c1ccnc(N[C@H]2CC[C@H](C(=O)N3CCCC3)CC2)n1", "note": "[Compound 114, (1-{2-[4-(pyrrolidino-1-carbonyl)-cyclohexyl-amino]-pyrimidin-4-yl}-1H-indol-4-yl)-acetonitrile]", "melting point": "136 to 137.5"}
{"molecule": "C[C@H]1CCCN1C(=O)[C@H]1CC[C@H](Nc2nccc(-n3ncc4c(OCCCS(N)(=O)=O)cccc43)n2)CC1", "note": "(stereo in doubt) [Compound 273, 3-(1-{2-[4-(2-methyl-pyrrolidine-1-carbonyl)-cyclohexylamino]-pyrimidin-4-yl}-1H-indazol-4-yloxy)-propane-1-sulfonic acid amide]", "melting point": "230 to 231"}
{"molecule": "CC(=O)N[C@H]1CC[C@H](Nc2nccc(-n3ccc4c(C(C)C#N)cccc43)n2)CC1", "note": "(some centres unmarked) [Compound 175, N-(4-{4-[4-(1-cyano-ethyl)-indol-1-yl]-pyrimidin-2-ylamino}-cyclohexyl)-acetamide]", "melting point": "244 to 245"}
{"molecule": "CS(=O)(=O)CCCOc1cccc2c1ccn2-c1ccnc(N[C@H]2CC[C@H](C(N)=O)CC2)n1", "note": "[Compound 250, 4-{4-[4-(3-methane-sulfonyl-propoxy)-indol-1-yl]-pyrimidin-2-ylamino}-cyclohexane-carboxylic acid amide]", "melting point": "249 to 250"}
{"molecule": "COc1cccc2c1cnn2-c1ccnc(N[C@H]2CC[C@H](C(=O)N(C)C)CC2)n1", "note": "[Compound 105, 4-[4-(4-methoxyindazol-1-yl)-pyrimidin-2-ylamino]-cyclo-hexanecarboxylic acid dimethylamide]", "melting point": "278.8 to 280"}
{"molecule": "CNC(=O)COc1cccc2c1cnn2-c1ccnc(N[C@H]2CC[C@H](C(=O)N(C)C)CC2)n1", "note": "[Compound 124, 4-[4-(4-methylcarba-moylmethoxy-indazol-1-yl)-pyrimidin-2-yl-amino]-cyclohexane-carboxylic acid dimethylamide]", "melting point": "183 to 185"}
